Consider one molecule from paper PMC11677424, “Early-Stage IM Treatment with the Host-Derived Immunostimulant CPDI-02 Increases Curative Protection of Healthy Outbred Mice Against Subcutaneous Infection with Community-Acquired Methicillin-Resistant Staphylococcus aureus USA300” (Pharmaceutics, 2024).

Data set [1] concerns CA-MRSA USA300 LAC. As to the kind of experiment: Curative treatment of female CD-1 mice infected SQ with CA-MRSA: abscess surface area by image analysis. It is filed as in vivo, Staphylococcus aureus. As to conditions: for effect on maximum abscess surface area or time to resolution vs vehicle alone: 6 treatments. Here is the method:
CA-MRSA USA300 LAC (Staphylococcus aureus Rosenbach, ATCC BAA-1756) was stored in 50% glycerol at −80 °C until use. To start a culture, a Tryptic Soy Agar (TSA; Remel) plate was streaked and incubated overnight at 37 °C. A single colony from the streaked agar plate was transferred to a 50 mL conical tube containing 30 mL of Tryptic Soy Broth (TSB; Remel) and incubated [37 °C] overnight while shaking [200 rpm]. The overnight culture was diluted [1:10] in TSB, incubated at 37 °C for ~2 h until A600 = 0.5 to 0.55, and pelleted [3000 g, 10 min] at 4 °C. The pellet was resuspended in PBS and pelleted as before and then resuspended in 0.05% (w/v) Cytodex-1 in sterile PBS (typical yield ~5 × 10^8 CFU/mL). MRSA concentration was confirmed by serial dilution in sterile PBS, dot plating on TSA plates, and incubation at 37 °C for 24 h before counting.
All procedures were approved by the University of Nebraska Medical Center Institutional Animal Care and Use Committee. Female outbred CD-1 mice (Charles Rivers, Strain Code 022, 4-6 weeks old) were acclimated in the animal facility for at least one week, and their rear flanks were shaved 24 h before the study. Mice were anesthetized with isoflurane and 0.100 mL of CA-MRSA stock solution (Section 2.3) was injected SQ (5 × 10^7 CFU total) from the left rear flank into the dorsal side. […] For IM (left caudal muscle) and SQ (left flank) administration, CPDI-02 was administered in 0.050 mL of sterile PBS [20 mg/mL] (volume adjusted to 50 mg/kg dose). For topical administration (TOP), CPDI-02 was applied to abscesses in 0.100 mL of ointment (3% w/v) (Section 2.2) using a positive displacement pipette [150 mg/kg dose]. For IV administration (tail vein), CPDI-02 was administered in 0.050 mL sterile PBS [5 mg/mL] (volume adjusted to 12.5 mg/kg dose). […] Mouse abscesses were imaged with reference scales daily over 10 days starting at 24 h post-challenge. Abscess surface areas were determined by image analysis (ImageJ®, ver.1.54h) and compared between vehicle and treatment group for each administration route over ten days post-challenge by repeated measurement with two-way ANOVA with Geisser–Greenhouse correction.

The subject of data set [2] is healthy male and female outbred CD-1 mice. Nature of the data set: IM dose escalation in healthy CD-1 mice. Format: in vivo. Here is the method: Twenty-four CD-1 mice, approximately 4 weeks old, were randomized by weight and sex into four cohorts and then intramuscularly administered either vehicle alone (filter-sterilized 0.2 μm endotoxin-free PBS) or vehicle containing CPDI-02 twice a week over 4 weeks (eight doses total). CPDI-02 doses began at 15 mg/kg and subsequent doses were increased by a conventional modified Fibonacci scheme (increase over previous dose: 100%, 67%, 50%, 40%, 30%, 33%, 33%) to a final dose of 225 mg/kg. Mice were weighed prior to the study and prior to each dose administration. On each dose administration date, mice were assigned a Pain and Distress Assessment Score (Table S1). Four days after the last treatment, mice were euthanized, whole blood was collected for complete blood count (CBC) with differential (VetScan® HM5 Hematology Analyzer), and the thymus, heart, lungs, brain, liver, spleen, kidneys, femur bone marrow, popliteal lymph nodes, Peyer’s patches, and injection site muscle (left caudal thigh muscle) were collected. Collected tissues were fixed in 10% formalin for 48 h and then embedded in paraffin. Before embedment in paraffin, femur bone marrow samples underwent decalcification by shaking in 10% formic acid for 8 h. Paraffin samples were cut into sections and underwent a Hematoxylin and Eosin (H&E) stain, then analyzed for signs of inflammation and other tissue abnormalities utilizing a Nikon Eclipse E600 at 40× magnification, and imaged using a Lumenera Infinity 2 Microscope Camera.

Data set [3] in a line: physchem. As to conditions: aqueous buffer.

In brackets after ≈: the same amount, converted by molar mass.

As usually defined, the solubility is how much of the substance goes into solution per volume. Read a high solubility as a readily soluble substance. On to `CSCC[C@H](NC(=O)[C@H](CC(=O)O)NC(=O)[C@H](CCCCN)NC(=O)[C@H](Cc1ccccc1)NC(=O)[C@H](CO)NC(=O)[C@@H](N)Cc1ccc(O)cc1)C(=O)N1CCC[C@H]1C(=O)N(C)[C@@H](CC(C)C)C(=O)N[C@H](C)C(=O)N[C@@H](CCCNC(=N)N)C(=O)O` [CPDI-02], for which the “effect of repeat treatment starting at 24 h post-challenge” value in data set [1] (regardless of administration route) was “no effect”. Further, in data set [1] (repeat IM 50 mg/kg starting 6 h post-challenge, mean ± SEM, n = 10, vehicle 74 ± 11, p = 0.0052, SEM), the “maximum abscess surface area (Day 1 post-challenge)” value came out at 31 ± 8 mm^2. Also, the “effect on maximum abscess surface area or time to resolution vs vehicle alone” value was “no effect” in data set [1] (repeat IV (tail vein) 12.5 mg/kg starting 6 h post-challenge); “no effect” in data set [1] (repeat SQ (left flank) 50 mg/kg starting 6 h post-challenge); “no effect” in data set [1] (repeat topical (TOP), 0.100 mL of 3% w/v ointment on abscess, 150 mg/kg, starting 6 h post-challenge). For the same molecule, the “time to resolution vs vehicle alone” value in data set [1] (single IM 50 mg/kg at 6 h post-challenge, similar extent as repeated IM treatment) was “decreased”. Besides, the “weight gain or survival” value in data set [2] (male and female CD-1 mice, IM twice a week, 15 up to 225 mg/kg over 28 days, 8 doses, n = 6) is reported as “did not affect”. The “mice with signs of inflammation around the injection site” value in data set [2] (male mice, four days after final dose, H&E, vehicle none) was 50%; in data set [2] (mouse, in vivo), 83%. Further, the “signs of inflammation in thymus, heart, lungs, brain, liver, spleen, kidneys, femur bone marrow, popliteal lymph nodes, Peyer's patches” value in data set [2] (mouse, in vivo) is given as “did not increase”. For the same molecule, the “platecrit vs vehicle alone” value in data set [2] (mouse, in vivo, 225 mg/kg) is “decreased”. Also, the “platelets vs vehicle alone” value in data set [2] (mouse, in vivo, 225 mg/kg) is “decreased”. The solubility in data set [3] was roughly 100 mg/mL (≈ 80.5 mM).
